The results in this text go back to patent EP3154958B1, “PHOSPHATIDYLINOSITOL 3-KINASE INHIBITORS” (Gilead Sciences, Inc., priority 2014, dated 2015).

Holding throughout (type): biochemical
One experiment concerns the target T1, PI3Kγ (Homo sapiens, UniProt P48736).
T1 construct: made in house
In words: TR-FRET enzymatic activity assay, PI3Kγ. Here is the method:
(§1) The compounds of formula (I) were characterized for their enzymatic activity against the PI3K isoforms. The activities were measured using a time-resolved fluorescence resonance energy transfer (TR-FRET) assay.

The target in another experiment is T2, PI3Kβ (Homo sapiens, UniProt P42338).
T2 construct: made in house
T2 sequence (P42338 whole entry): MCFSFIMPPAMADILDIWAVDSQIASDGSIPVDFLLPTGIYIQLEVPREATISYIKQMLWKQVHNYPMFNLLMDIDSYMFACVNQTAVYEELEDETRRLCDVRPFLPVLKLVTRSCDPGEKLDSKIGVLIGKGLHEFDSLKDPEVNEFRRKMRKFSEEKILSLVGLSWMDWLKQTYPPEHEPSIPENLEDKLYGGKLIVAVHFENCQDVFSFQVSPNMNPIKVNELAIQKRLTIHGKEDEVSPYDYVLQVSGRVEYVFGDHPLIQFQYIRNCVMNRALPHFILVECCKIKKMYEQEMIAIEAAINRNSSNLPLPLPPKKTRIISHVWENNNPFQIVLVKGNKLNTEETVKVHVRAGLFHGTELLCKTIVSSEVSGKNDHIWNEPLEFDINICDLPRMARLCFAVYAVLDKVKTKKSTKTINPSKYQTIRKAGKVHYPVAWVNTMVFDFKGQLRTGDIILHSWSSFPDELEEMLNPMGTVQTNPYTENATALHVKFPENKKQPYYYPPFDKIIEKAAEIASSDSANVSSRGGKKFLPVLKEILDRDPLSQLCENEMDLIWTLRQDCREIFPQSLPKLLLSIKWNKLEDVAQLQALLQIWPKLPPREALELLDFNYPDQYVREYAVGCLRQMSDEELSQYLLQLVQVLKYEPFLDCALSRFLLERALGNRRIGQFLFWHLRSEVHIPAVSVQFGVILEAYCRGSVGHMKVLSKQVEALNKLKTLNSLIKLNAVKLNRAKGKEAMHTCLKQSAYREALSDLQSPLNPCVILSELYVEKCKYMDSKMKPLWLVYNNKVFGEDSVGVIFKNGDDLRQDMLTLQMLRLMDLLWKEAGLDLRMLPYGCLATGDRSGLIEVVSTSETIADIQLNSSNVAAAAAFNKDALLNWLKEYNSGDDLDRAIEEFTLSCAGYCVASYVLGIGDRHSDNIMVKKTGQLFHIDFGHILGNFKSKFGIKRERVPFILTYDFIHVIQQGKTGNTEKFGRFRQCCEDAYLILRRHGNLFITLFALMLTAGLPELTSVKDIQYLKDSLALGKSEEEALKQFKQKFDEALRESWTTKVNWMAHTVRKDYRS
T2 sequence (P27986 whole entry partner): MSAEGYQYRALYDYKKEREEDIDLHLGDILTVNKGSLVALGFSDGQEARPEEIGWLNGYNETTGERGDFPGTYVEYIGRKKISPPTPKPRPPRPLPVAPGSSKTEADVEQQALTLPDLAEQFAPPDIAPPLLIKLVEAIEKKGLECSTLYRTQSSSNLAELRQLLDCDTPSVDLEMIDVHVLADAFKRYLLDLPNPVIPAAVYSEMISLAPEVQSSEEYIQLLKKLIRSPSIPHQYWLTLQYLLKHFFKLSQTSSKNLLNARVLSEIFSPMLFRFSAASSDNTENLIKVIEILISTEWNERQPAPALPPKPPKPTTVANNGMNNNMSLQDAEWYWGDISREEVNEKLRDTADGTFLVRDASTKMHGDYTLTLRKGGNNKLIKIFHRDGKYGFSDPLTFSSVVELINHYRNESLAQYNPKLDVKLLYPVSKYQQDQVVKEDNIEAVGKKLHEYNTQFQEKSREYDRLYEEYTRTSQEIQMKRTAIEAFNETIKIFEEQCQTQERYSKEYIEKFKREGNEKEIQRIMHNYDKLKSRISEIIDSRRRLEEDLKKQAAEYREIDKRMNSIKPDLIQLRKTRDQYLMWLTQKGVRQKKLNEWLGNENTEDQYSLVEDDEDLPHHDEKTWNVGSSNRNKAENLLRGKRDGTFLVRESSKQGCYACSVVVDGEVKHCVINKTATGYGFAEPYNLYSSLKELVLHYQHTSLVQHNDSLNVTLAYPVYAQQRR
In words: TR-FRET enzymatic activity assay, PI3Kβ. The protocol:
as §1
(TR-FRET usually uses a lanthanide donor and a delayed reading to cut background.)

Another experiment concerns the target T3, PI3Kδ (Homo sapiens, UniProt O00329).
T3 construct: made in house
In words: TR-FRET enzymatic activity assay, PI3Kδ. The protocol: as §1

The mark [1] stands for this setting: recombinant heterodimeric PI3Kγ 2 nM, 2× Km ATP, 30 minutes at 25°C.
Setting [2] is: recombinant heterodimeric PI3Kβ 25-50 pM, 2× Km ATP, 30 minutes at 25°C.
The mark [3] stands for this setting: recombinant heterodimeric PI3Kδ 25-50 pM, 2× Km ATP, 30 minutes at 25°C.

Where two headings read alike, the source gives them in different places.

By IC50 is commonly meant the point on the concentration scale where inhibition reaches its midpoint.

T3 sequence (O00329 whole entry): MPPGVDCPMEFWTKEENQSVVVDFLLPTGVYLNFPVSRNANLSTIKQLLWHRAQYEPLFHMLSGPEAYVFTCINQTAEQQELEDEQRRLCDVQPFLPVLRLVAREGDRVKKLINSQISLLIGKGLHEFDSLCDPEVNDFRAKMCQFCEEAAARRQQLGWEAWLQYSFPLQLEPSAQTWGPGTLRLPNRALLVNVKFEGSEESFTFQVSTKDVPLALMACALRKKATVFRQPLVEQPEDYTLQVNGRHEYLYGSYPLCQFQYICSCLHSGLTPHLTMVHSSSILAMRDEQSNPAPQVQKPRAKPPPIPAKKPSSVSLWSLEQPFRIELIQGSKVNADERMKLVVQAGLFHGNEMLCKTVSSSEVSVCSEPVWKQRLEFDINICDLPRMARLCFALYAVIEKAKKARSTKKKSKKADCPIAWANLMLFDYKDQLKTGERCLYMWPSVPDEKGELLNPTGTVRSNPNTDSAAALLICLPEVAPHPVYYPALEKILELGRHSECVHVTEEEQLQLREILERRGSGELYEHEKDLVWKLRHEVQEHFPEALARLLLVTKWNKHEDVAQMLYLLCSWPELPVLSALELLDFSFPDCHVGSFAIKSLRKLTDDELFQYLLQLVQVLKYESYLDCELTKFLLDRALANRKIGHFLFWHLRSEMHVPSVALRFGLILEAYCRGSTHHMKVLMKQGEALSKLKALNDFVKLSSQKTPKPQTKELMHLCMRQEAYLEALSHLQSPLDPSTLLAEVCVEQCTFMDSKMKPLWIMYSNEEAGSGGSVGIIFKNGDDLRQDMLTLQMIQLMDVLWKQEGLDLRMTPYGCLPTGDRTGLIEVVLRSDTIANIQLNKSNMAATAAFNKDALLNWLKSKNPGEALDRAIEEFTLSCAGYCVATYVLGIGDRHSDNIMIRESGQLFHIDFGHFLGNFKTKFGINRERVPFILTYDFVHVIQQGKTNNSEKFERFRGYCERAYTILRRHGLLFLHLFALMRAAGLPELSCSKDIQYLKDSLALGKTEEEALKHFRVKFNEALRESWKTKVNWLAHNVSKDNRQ
T3 sequence (P27986 whole entry partner): as the sequence (P27986 whole entry partner) above
T1 sequence (P48736 whole entry): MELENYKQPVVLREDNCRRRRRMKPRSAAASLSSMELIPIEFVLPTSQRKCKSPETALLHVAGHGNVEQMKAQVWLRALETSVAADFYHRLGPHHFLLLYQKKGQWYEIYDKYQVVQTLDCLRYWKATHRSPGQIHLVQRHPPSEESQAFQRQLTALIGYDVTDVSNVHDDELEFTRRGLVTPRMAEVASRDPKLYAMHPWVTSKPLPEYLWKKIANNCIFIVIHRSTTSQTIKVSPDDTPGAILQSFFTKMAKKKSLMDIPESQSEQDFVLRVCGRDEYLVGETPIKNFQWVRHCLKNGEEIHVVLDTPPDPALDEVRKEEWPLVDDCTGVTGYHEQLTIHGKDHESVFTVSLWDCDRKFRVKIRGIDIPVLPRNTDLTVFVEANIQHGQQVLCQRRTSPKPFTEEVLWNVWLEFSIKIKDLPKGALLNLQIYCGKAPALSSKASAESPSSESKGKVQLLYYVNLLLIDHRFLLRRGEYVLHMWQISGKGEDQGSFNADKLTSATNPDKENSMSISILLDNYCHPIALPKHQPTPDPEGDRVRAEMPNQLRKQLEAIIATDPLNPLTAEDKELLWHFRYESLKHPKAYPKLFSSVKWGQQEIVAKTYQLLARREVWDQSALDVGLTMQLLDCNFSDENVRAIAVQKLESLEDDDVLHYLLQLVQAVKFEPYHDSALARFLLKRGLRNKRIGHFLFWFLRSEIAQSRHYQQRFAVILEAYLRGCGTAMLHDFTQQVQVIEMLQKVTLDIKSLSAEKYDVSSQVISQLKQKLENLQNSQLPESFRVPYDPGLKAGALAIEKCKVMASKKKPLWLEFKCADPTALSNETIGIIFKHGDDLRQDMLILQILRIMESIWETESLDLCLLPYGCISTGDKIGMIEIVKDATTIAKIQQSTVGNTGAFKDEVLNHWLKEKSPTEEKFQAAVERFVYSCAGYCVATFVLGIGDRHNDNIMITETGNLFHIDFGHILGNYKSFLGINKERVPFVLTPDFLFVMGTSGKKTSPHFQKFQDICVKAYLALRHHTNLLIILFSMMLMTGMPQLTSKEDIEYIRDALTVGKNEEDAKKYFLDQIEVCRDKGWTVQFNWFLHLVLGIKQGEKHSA
T1 sequence (Q8WYR1 whole entry partner): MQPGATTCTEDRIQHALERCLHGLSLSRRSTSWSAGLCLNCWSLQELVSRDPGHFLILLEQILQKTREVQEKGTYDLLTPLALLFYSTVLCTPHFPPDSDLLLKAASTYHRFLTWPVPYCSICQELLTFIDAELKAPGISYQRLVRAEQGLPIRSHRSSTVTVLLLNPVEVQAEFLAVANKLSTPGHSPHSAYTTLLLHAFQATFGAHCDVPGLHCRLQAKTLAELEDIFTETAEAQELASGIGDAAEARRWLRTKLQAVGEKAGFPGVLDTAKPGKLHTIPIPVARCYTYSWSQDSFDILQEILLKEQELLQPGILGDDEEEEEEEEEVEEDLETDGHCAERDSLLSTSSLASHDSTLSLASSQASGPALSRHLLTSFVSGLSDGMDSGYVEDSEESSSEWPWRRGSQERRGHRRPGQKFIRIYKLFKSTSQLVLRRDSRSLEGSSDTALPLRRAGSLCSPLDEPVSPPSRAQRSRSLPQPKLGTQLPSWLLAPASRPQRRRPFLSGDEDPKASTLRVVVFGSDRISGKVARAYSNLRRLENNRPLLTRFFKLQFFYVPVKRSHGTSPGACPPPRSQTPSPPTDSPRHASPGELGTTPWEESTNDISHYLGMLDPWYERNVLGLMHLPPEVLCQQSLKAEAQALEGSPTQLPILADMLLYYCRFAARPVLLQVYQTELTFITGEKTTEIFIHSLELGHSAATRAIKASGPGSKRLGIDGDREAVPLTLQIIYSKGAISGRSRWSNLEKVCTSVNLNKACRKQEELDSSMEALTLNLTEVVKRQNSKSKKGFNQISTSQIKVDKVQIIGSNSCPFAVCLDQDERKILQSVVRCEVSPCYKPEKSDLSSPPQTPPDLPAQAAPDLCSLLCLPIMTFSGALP

For `O=c1c2c(Cl)cccc2nc([C@@H](Nc2ncnn3ccnc23)C2CC2)n1N1CCNCC1` [Compound 43, (S)-5-chloro-2-(cyclopropyl(imidazo[2,1-f][1,2,4]triazin-4-ylamino)methyl)-3-(piperazin-1-yl)quinazolin-4(3H)-one], the half-maximal inhibitory concentration (IC50) on PI3Kγ (setting [1]) is more than 10000 nM; at PI3Kβ (setting [2]), 30 nM; at PI3Kδ (setting [3]), 4 nM.
The corresponding values for `CC[C@H](Nc1nc(N)nc(C)c1C#N)c1nc2cccc(Cl)c2c(=O)n1N1CCNCC1` [Compound 44, (S)-2-amino-4-((1-(5-chloro-4-oxo-3-(piperazin-1-yl)-3,4-dihydroquinazolin-2-yl)propyl)amino)-6-methylpyrimidine-5-carbonitrile] are 1800 nM, 2 nM and 1 nM.
On the same counts, the results for `Cc1nc(N)nc(N[C@H](c2nc3cccc(Cl)c3c(=O)n2N2CCNCC2)C2CC2)c1C#N` [Compound 46, (S)-2-amino-4-(((5-chloro-4-oxo-3-(piperazin-1-yl)-3,4-dihydroquinazolin-2-yl)(cyclopropyl)methyl)amino)-6-methylpyrimidine-5-carbonitrile] are 2600 nM, 2 nM and 1 nM.
The corresponding values for `O=c1c2c(Cl)ccc(F)c2nc([C@@H](Nc2ncnn3ccnc23)C2CC2)n1N1CCNCC1` [Compound 47, (S)-5-chloro-2-(cyclopropyl(imidazo[2,1-f][1,2,4]triazin-4-ylamino)methyl)-8-fluoro-3-(piperazin-1-yl)quinazolin-4(3H)-one] are more than 10000 nM, 48 nM and 5 nM.
For `N#Cc1c(N)nc(N)nc1N[C@H](c1nc2c(F)ccc(Cl)c2c(=O)n1N1CCNCC1)C1CC1` [Compound 48, (S)-2,4-diamino-6-(((5-chloro-8-fluoro-4-oxo-3-(piperazin-1-yl)-3,4-dihydroquinazolin-2-yl)(cyclopropyl)methyl)amino)pyrimidine-5-carbonitrile], the 50% inhibitory concentration (IC50) was found to be 3300 nM at PI3Kγ (setting [1]), 3 nM on PI3Kβ (setting [2]) and 1 nM on PI3Kδ (setting [3]).
On the same counts, the results for `C[C@H](Nc1ncnc2scnc12)c1nc2c(Cl)ccc(Cl)c2c(=O)n1N1CCNCC1` [Compound 49, (S)-5,8-dichloro-3-(piperazin-1-yl)-2-(1-(thiazolo[5,4-d]pyrimidin-7-ylamino)ethyl)quinazolin-4(3H)-one] are more than 10000 nM, 19 nM and 2 nM.
The corresponding values for `C[C@H](Nc1ncnc2scnc12)c1nc2c(F)ccc(Cl)c2c(=O)n1N1CCNCC1` [Compound 50, (S)-5-chloro-8-fluoro-3-(piperazin-1-yl)-2-(1-(thiazolo[5,4-d]pyrimidin-7-ylamino)ethyl)quinazolin-4(3H)-one] are more than 10000 nM, 15 nM and 2 nM.
Regarding `C[C@H](Nc1ncnc2ccc(Cl)nc12)c1nc2c(Cl)ccc(Cl)c2c(=O)n1N1CCNCC1` [Compound 52, (S)-5,8-dichloro-2-(1-((6-chloropyrido[3,2-d]pyrimidin-4-yl)amino)ethyl)-3-(piperazinl-yl)quinazolin-4(3H)-one], the half-inhibitory concentration (IC50) worked out at 3100 nM at PI3Kγ, 8 nM against PI3Kβ and 3 nM against PI3Kδ.
For the molecule `C[C@H](Nc1nc(N)nc(N)c1C#N)c1nc2c(F)ccc(Cl)c2c(=O)n1N1CCNCC1` [Compound 54, (S)-2,4-diamino-6-((1-(5-chloro-8-fluoro-4-oxo-3-(piperazin-1-yl)-3,4-dihydroquinazolin-2-yl)ethyl)amino)pyrimidine-5-carbonitrile], the results for the IC50 at PI3Kγ (setting [1]), at PI3Kβ (setting [2]) and on PI3Kδ (setting [3]) were 1900 nM, 4 nM and 2 nM, respectively.
The corresponding values for `C[C@H](Nc1ncnc(N)c1C#N)c1nc2cccc(Cl)c2c(=O)n1N1CCNCC1` [Compound 55, (S)-4-amino-6-((1-(5-chloro-4-oxo-3-(piperazin-1-yl)-3,4-dihydroquinazolin-2-yl)ethyl)amino)pyrimidine-5-carbonitrile] are more than 10000 nM, 14 nM and 1 nM.
The corresponding values for `C[C@H](Nc1ncnc(N)c1C#Cc1ccc(F)cn1)c1nc2cccc(Cl)c2c(=O)n1N1CCNCC1` [Compound 58, (S)-2-(1-((6-amino-5-((5-fluoropyridin-2-yl)ethynyl)pyrimidin-4-yl)amino)ethyl)-5-chloro-3-(piperazin-1-yl)quinazolin-4(3H)-one] are more than 10000 nM, 10 nM and 2 nM.
With `Cc1nc(N)c(C(=O)N[C@@H](C)c2nc3cccc(Cl)c3c(=O)n2N2CCNCC2)nc1C` [Compound 59, (S)-3-amino-N-(1-(5-chloro-4-oxo-3-(piperazin-1-yl)-3,4-dihydroquinazolin-2-yl)ethyl)-5,6-dimethylpyrazine-2-carboxamide], the IC50 is more than 10000 nM on PI3Kγ (setting [1]), 73 nM at PI3Kβ (setting [2]) and 280 nM at PI3Kδ (setting [3]).
On the same counts, the results for `Cc1cccc2nc([C@H](C)Nc3ncnc(N)c3C#N)n(C3CCNCC3)c(=O)c12` [Compound 60, (S)-4-amino-6-((1-(5-methyl-4-oxo-3-(piperidin-4-yl)-3,4-dihydroquinazolin-2-yl)ethyl)amino)pyrimidine-5-carbonitrile] are more than 10000 nM, 130 nM and 5 nM.
Take `C[C@H](Nc1nc(N)nc(N)c1C#N)c1nc2cccc(Cl)c2c(=O)n1N1CCNC(C(F)(F)F)C1` (stereo partly drawn) [Compound 61, 2,4-diamino-6-(((1S)-1-(5-chloro-4-oxo-3-(3-(trifluoromethyl)piperazin-1-yl)-3,4-dihydroquinazolin-2-yl)ethyl)amino)pyrimidine-5-carbonitrile]: the IC50 was 400 nM at PI3Kγ (setting [1]), 150 nM on PI3Kβ (setting [2]) and 0.9 nM on PI3Kδ (setting [3]).
The corresponding values for `C[C@H](Nc1ncnc(N)c1C#N)c1nc2cccc(Cl)c2c(=O)n1N1CCNC(C(F)(F)F)C1` (stereo partly drawn) [Compound 62, 4-amino-6-(((1S)-1-(5-chloro-4-oxo-3-(3-(trifluoromethyl)piperazin-1-yl)-3,4-dihydroquinazolin-2-yl)ethyl)amino)pyrimidine-5-carbonitrile] are 8400 nM, 820 nM and 9 nM.
On the same counts, the results for `C[C@H](Nc1ncnc(N)c1C#N)c1nc2cccc(Cl)c2c(=O)n1N1CCNC2(CC2)C1` [Compound 63, (S)-4-amino-6-((1-(5-chloro-4-oxo-3-(4,7-diazaspiro[2.5]octan-7-yl)-3,4-dihydroquinazolin-2-yl)ethyl)amino)pyrimidine-5-carbonitrile] are more than 10000 nM, 5 nM and 2 nM.
On the same counts, the results for `C[C@H](Nc1ncnn2ccnc12)c1nc2cccc(Cl)c2c(=O)n1N1CCCNCC1` [Compound 64, (S)-5-chloro-3-(1,4-diazepan-1-yl)-2-(1-(imidazo[2,1-f][1,2,4]triazin-4-ylamino)ethyl)quinazolin-4(3H)-one] are more than 10000 nM, 94 nM and 9 nM.
As for `C[C@H](Nc1ncnn2ccnc12)c1nc2cccc(Cl)c2c(=O)n1N1CCNCC1` [Compound 65, (S)-5-chloro-2-(1-(imidazo[2,1-f][1,2,4]triazin-4-ylamino)ethyl)-3-(piperazin-1-yl)quinazolin-4(3H)-one], the IC50 on PI3Kγ (setting [1]) is more than 10000 nM; on PI3Kβ (setting [2]), 42 nM; at PI3Kδ (setting [3]), 8 nM.
On the same counts, the results for `C[C@H](Nc1ncnc(N)c1C#N)c1nc2cccc(Cl)c2c(=O)n1N1CCCNCC1` [Compound 66, (S)-4-amino-6-((1-(5-chloro-3-(1,4-diazepan-1-yl)-4-oxo-3,4-dihydroquinazolin-2-yl)ethyl)amino)pyrimidine-5-carbonitrile] are more than 10000 nM, 370 nM and 13 nM.
On the same counts, the results for `C[C@H](Nc1ncnc(N)c1C#N)c1nc2cccc(Cl)c2c(=O)n1N1CCCNCC1` [Compound 67, (S)-4-amino-6-((1-(5-chloro-3-(1,4-diazepan-1-yl)-4-oxo-3,4-dihydroquinazolin-2-yl)ethyl)amino)pyrimidine-5-carbonitrile] are more than 10000 nM, 22 nM and 2 nM.
On the same counts, the results for `CC[C@H](Nc1nc(N)nc(N)c1C#N)c1nc2cccc(Cl)c2c(=O)n1N1CCNCC1` [Compound 68, (S)-2,4-diamino-6-((1-(5-chloro-4-oxo-3-(piperazin-1-yl)-3,4-dihydroquinazolin-2-yl)propyl)amino)pyrimidine-5-carbonitrile] are 2100 nM, 1 nM and 3 nM.
In the case of `C[C@H](Nc1ncnc2[nH]cc(Br)c12)c1nc2cccc(Cl)c2c(=O)n1N1CCNCC1` [Compound 69, (S)-2-(1-((5-bromo-7H-pyrrolo[2,3-d]pyrimidin-4-yl)amino)ethyl)-5-chloro-3-(piperazin-1-yl)quinazolin-4(3H)-one], the IC50 at PI3Kγ (setting [1]) was 7400 nM; at PI3Kβ (setting [2]), 3 nM; at PI3Kδ (setting [3]) it was 1 nM.
The corresponding values for `C[C@H](Nc1ncnc2scnc12)c1nc2cccc(Cl)c2c(=O)n1N1CCNCC1` [Compound 70, (S)-5-chloro-3-(piperazin-1-yl)-2-(1-(thiazolo[5,4-d]pyrimidin-7-ylamino)ethyl)quinazolin-4(3H)-one] are more than 10000 nM, 14 nM and 3 nM.
Turning to `C[C@H](Nc1ncnc2ccc(Cl)nc12)c1nc2cccc(Cl)c2c(=O)n1N1CCNCC1` [Compound 71, (S)-5-chloro-2-(1-((6-chloropyrido[3,2-d]pyrimidin-4-yl)amino)ethyl)-3-(piperazin-1-yl)quinazolin-4(3H)-one], the IC50 was 3200 nM at PI3Kγ (setting [1]), 3 nM at PI3Kβ (setting [2]) and 2 nM at PI3Kδ (setting [3]).
